The source of these data is patent publication US8778966B2, “Quinolinone derivatives as PARP and tank inhibitors” (Janssen Pharmaceutica, NV, priority 2007, dated 2014).

For the assay, the target named is T1, TANK-2 enzyme (Homo sapiens, UniProt Q9H2K2).
T1 construct: made in house
T1 sequence (Q9H2K2 1-1166): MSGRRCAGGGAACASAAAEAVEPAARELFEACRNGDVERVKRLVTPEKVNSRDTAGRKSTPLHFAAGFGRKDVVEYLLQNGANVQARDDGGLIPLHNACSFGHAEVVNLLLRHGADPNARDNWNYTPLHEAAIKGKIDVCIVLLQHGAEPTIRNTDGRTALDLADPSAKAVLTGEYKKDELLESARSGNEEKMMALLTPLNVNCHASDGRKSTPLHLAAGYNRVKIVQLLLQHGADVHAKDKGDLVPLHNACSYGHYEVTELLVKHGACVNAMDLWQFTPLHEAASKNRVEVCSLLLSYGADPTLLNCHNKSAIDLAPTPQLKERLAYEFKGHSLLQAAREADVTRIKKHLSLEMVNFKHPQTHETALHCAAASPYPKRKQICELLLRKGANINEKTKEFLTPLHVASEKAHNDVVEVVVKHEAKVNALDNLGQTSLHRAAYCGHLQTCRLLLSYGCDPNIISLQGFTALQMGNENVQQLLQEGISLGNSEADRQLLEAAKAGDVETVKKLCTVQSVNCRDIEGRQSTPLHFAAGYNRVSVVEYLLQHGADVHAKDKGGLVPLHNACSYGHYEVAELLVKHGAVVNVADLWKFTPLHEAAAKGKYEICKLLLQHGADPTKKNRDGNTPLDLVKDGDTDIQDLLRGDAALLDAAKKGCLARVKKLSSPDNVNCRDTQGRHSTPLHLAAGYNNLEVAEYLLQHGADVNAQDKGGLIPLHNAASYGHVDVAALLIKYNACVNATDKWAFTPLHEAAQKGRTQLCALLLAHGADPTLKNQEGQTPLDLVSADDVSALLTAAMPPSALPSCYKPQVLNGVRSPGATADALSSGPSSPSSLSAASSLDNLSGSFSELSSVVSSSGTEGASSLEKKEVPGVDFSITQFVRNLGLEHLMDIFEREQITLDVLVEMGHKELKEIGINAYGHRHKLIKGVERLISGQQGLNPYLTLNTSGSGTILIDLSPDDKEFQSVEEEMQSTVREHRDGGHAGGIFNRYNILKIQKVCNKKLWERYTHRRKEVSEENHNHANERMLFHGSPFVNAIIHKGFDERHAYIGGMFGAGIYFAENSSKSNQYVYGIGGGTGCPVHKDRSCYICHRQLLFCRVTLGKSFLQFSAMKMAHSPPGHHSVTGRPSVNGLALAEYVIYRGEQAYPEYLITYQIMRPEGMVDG
The assay is described as follows: In vitro Scintillation Proximity Assay (SPA) for TANK-2 inhibitory activity. Format: biochemical. The following applies: read-out: in vitro SPA assay TANK-2 pIC50 (converted). The gist of the method: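 TANK-2 (8 μg/ml final) auto-poly(ADP-ribosyl)ation with [3H]-NAD+/NAD donor was run in Ni flash plates in Tris/HCl pH 7.4 buffer with DTT and MgCl2, 120 min at room temperature, then stopped with excess NAD and scintillation-counted. Blank-corrected cpm was expressed as % of enzyme control, and IC50 was linearly interpolated and reported as pIC50.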

Regarding `Cc1cc2ccc(C(C)(C#N)C3CCc4c(C#N)cccc43)cc2[nH]c1=O` (racemic) [Compound 393], the IC50 was 794 nM.
With `CCc1cc2ccc(C(C)(C#N)C3CCc4ccc(Br)cc43)cc2[nH]c1=O` (single isomer, unassigned) [Compound 380], the IC50 is 2510 nM.
With `CCc1cc2ccc(C(C)(C#N)C3CCc4ccc(Br)cc43)cc2[nH]c1=O` (single isomer, unassigned) [Compound 381] the figure was 1260 nM; with `Cc1cc2ccc([C@](C)(C#N)C3CCc4cccnc43)cc2[nH]c1=O` (single isomer, unassigned) [Compound 388], 631 nM.
With `CCc1cc2ccc([C@](C)(C#N)C[C@H]3CCc4ccccc4O3)cc2[nH]c1=O` (single isomer, unassigned) [Compound 396] the figure was 158 nM; with `Cc1cc2ccc(C(C)(C#N)Cc3cccc(Oc4ncccn4)c3)cc2[nH]c1=O` (centres unmarked) [Compound 191], 1580 nM.
The result for `Cc1cc2ccc(C(C)(C#N)Cc3cccc(Oc4ccccc4)n3)cc2[nH]c1=O` (centres unmarked) [Compound 193] reads 631 nM; that for `CCc1cnc(OCCC(C)(C#N)c2ccc3cc(CC)c(=O)[nH]c3c2)nc1` (centres unmarked) [Compound 222], 100 nM.
On to `CCc1cc2ccc(C(C)(C#N)CCOc3nccc(OC)n3)cc2[nH]c1=O` (centres unmarked) [Compound 223], for which the IC50 was 794 nM.
The result for `Cc1cc2ccc(C(C)(C#N)Cc3cccc(C#N)n3)cc2[nH]c1=O` (centres unmarked) [Compound 227] reads 316 nM; that for `Cc1cc2ccc([C@@](C)(C#N)[C@@H]3CCc4cc(Br)ccc43)cc2[nH]c1=O` [Compound 240], 6310 nM; that for `Cc1cc2ccc([C@@](C)(C#N)[C@H]3CCc4cc(Br)ccc43)cc2[nH]c1=O` [Compound 241], 6310 nM.
In the case of `Cc1cc2ccc([C@](C)(C#N)[C@@H]3CCc4cc(Br)ccc43)cc2[nH]c1=O` [Compound 242], the IC50 is 7940 nM.
On to `Cc1cc2ccc(C(C)(C#N)C3CCc4cc(Br)ccc43)cc2[nH]c1=O` (centres unmarked) [Compound 244], for which the IC50 is 7940 nM.
Turning to `Cc1cc2ccc(C(C)(C#N)C3CCc4c(Br)cccc43)cc2[nH]c1=O` (centres unmarked) [Compound 248], the IC50 was 1260 nM.
With `Cc1cc2ccc(C(C)(C#N)C3CCc4ccc(C#N)cc43)cc2[nH]c1=O` (centres unmarked) [Compound 250] the figure was 398 nM; with `C=C(C)c1cccc(CC(C)(C#N)c2ccc3cc(CC)c(=O)[nH]c3c2)c1` (centres unmarked) [Compound 254], 251 nM.
The result for `CCc1cc2ccc(C(C#N)(CC)Cc3cccc(F)c3)cc2[nH]c1=O` (centres unmarked) [Compound 270] reads 316 nM; that for `Cc1cc2ccc(C(C)(C#N)CCCCOc3ccccc3)cc2[nH]c1=O` (centres unmarked) [Compound 272], 501 nM.
With `Cc1cc2ccc(C(C)(C#N)Cc3cc(F)cc(F)c3)cc2[nH]c1=O` (centres unmarked) [Compound 282] the figure was 794 nM.
On to `CCc1cc2ccc(C(C)(C#N)Cc3cc(C)cc(Br)c3)cc2[nH]c1=O` (centres unmarked) [Compound 284], for which the IC50 was 501 nM.
The result for `CCc1cc2ccc(C(C)(C#N)CN(C)CCc3cn(C)c4ccccc34)cc2[nH]c1=O` (centres unmarked) [Compound 303] reads 126 nM.
For `Cc1cc2ccc(C(C)(C#N)Cc3cccc(Oc4ccccn4)c3)cc2[nH]c1=O` (centres unmarked) [Compound 304], the IC50 was 1000 nM.
Consider `CCOc1cc(N(C)C)nc(CC(C)(C#N)c2ccc3cc(CC)c(=O)[nH]c3c2)n1` (centres unmarked) [Compound 312], for which the IC50 is 100 nM.
The result for `CCc1cc2ccc(C(C)(C#N)Cc3cc(C)nc(Cl)c3)cc2[nH]c1=O` (centres unmarked) [Compound 326] reads 398 nM.
The result for `CCc1cc2ccc(C(C)(C#N)Cc3ccnc(F)c3)cc2[nH]c1=O` (centres unmarked) [Compound 330] reads 398 nM.
`CCc1cc2ccc(C(C)(C#N)Cc3ccnc(Cl)c3)cc2[nH]c1=O` (centres unmarked) [Compound 341]: the IC50 was 79.4 nM.
For the compound `CCc1cc2ccc(C(C)(C#N)CCOc3ccnc(SC)n3)cc2[nH]c1=O` (centres unmarked) [Compound 348], the IC50 was 200 nM.
The result for `Cc1cc2ccc([C@@](C)(C#N)[C@@H]3CCCc4ccccc43)cc2[nH]c1=O` [Compound 382] reads 2000 nM.
